Test results taken from patent publication US11186581B2, “2-(1,3-dimethyl-2,6-dioxo-1,2,3,6-tetrahydro-7H-purin-7-yl)-N-(6-(2-hydroxyphenyl)pyridazin-3-yl)acetamide as a Wnt pathway modulator” (Agency for Science, Technology and Research, priority 2017, dated 2021).
Values joined by “and” are separate entries in the source; they are usually repeats but may differ in a detail not shown here. Equal entries are not always repeated. Where two headings read alike, the source gives them in different places.

Key:
[1] = tested on: HEK293-STF3A cells; test: STF3A assay (Wnt reporter luciferase); assay type: cell-based; conditions: Homo sapiens, 24 h, 1 day of treatment, read-out: IC50 activities on STF3A cells
Description: HEK293-STF cell line was modified from Human embryonic kidney cell line HEK293 transfected with the STF reporter. HEK293-STF3 A cell line was further modified from HEK293-STF cell line to express Wnt3A. This cell line was used to identify compounds that regulate either early or late signalling components of the Wnt pathway. L-Wnt3 A (ATCC, #CRL-2647) cell line was used for providing Wnt3 A conditioned media. The three cell lines were grown in DMEM (Dulbecco's Modified Eagle Medium) with 10% FBS (fetal bovine serum) incubated in 37° C. with 5% CO2.
2×10^4 HEK293-STF3A cells in 75 μl culture media were seeded in each well of white 96 well plates (Greiner #655098) and incubated overnight at 37° C. 25 μl serially diluted compound was added to the cells to give final concentration of 50 μM to 1.5 nM. After 1 day of treatment, 100 μl of Steady-Glo® Luciferase Assay reagent (#E2520, Promega) was added to each well and incubated for 10 minutes at room temperature. Luminescence was measured using Tecan Safire2® plate reader.

[2] = Plasma pharmacokinetics after single intravenous and oral dose; assay type: in vivo, male BALB/c mice
Description: The objective of this study was to investigate the plasma pharmacokinetics of Compound 1 in male BALB/c mice following a single intravenous and oral dose administration. A group of eighteen male mice were divided in to two groups as Group 1 and Group 2 with nine mice in each group.
Animals in Group 1 were administered intravenously with Compound 1 solution formulation in 7.5% NMP, 5% Solutol HS-15 and 87.5% normal Saline at a dose of 1 mg/kg.
Animals in Group 2 were administered orally with Compound 1 solution formulation in 7.5% NMP, 5% Solutol HS-15 and 87.5% normal Saline at a dose of 5 mg/kg.
Blood samples (approximately 60 μL) were collected under light isoflurane anesthesia from retro orbital plexus at predose, 0.08, 0.25, 0.5, 1, 2, 4, 8 and 24 hr (IV) and predose, 0.25, 0.5, 1, 2, 4, 6, 8 and 24 hr (PO). During each sampling point, blood samples were collected in labeled pre-chilled tubes containing K2EDTA (20% K2EDTA solution) as an anticoagulant and protease inhibitor (10 μL of 10× solution/100 μL of blood). Low temperature was maintained till storage of plasma at −70° C. Plasma samples were separated by centrifugation of whole blood and stored below −70° C. until bioanalysis. All samples were processed for analysis by protein precipitation using acetonitrile (ACN) and analyzed with fit-for-purpose LC/MS/MS method (Lower limit of quantitation (LLOQ: 1.02 ng/mL). Pharmacokinetic parameters were calculated using the non-compartmental analysis tool of Phoenix WinNonlin® (Version 6.3). The overall pharmacokinetic parameters are summarized below:
The objective of the study is to determine the plasma pharmacokinetics of Compound 1 in male BALB/c mice following a single intravenous (1 mg/kg) and oral (5 mg/kg) administration in presence of a protease inhibitor.
A group of eighteen male mice were divided in to two groups as Group 1 and Group 2 with nine mice in each group. Animals in Group 1 were administered intravenously with Compound 1 solution formulation in 7.5% NMP, 5% Solutol HS-15 and 87.5% normal Saline at a dose of 1 mg/kg. Animals in Group 2 were administered orally with Compound 1 solution formulation in 7.5% NMP, 5% Solutol HS and 87.5% normal Saline at a dose of 5 mg/kg.
The dosing volume administered was 5 mL/kg for intravenous and 10 mL/kg for oral administration.
Blood samples (approximately 60 μL) were collected from retro-orbital plexus of three mice at each time point [predose, 0.08, 0.25, 0.5, 1, 2, 4, 8 and 24 hr (IV) and predose, 0.25, 0.5, 1, 2, 4, 6, 8 and 24 hr (PO)]. During each sampling point, blood samples were collected in labeled pre-chilled tubes containing K2EDTA (20% K2EDTA solution) as an anticoagulant and protease inhibitor (10 μL of 10× solution/100 μL of blood). Low temperature was maintained till storage of plasma at −70° C. Plasma was immediately harvested from the blood by centrifugation at 4000 rpm for 10 min at 4±2° C. and stored below −70° C. until bioanalysis. Preparation of protease inhibitor solution: One tablet of sigmaFAST (Product Code: 58820) was reconstituted into 10 mL of Milli-Q water to prepare 10× solution.
Concentrations of Compound 1 in mouse plasma samples were determined by fit-for-purpose LC-MS/MS method. The sample processing and extraction procedure, chromatographic and mass spectrometric conditions are provided below:
A 25 μL of study sample (DF was applied for few samples) or spiked plasma calibration standard was added to individual pre-labeled micro-centrifuge tubes followed by 100 μL of internal standard prepared in acetonitrile (Glipizide, 500 ng/mL) was added except for blank, where 100 μL of acetonitrile was added. Samples were vortexed for 5 minutes. Samples were centrifuged for 10 minutes at a speed of 4000 rpm at 4° C. Following centrifugation, 100 μL of clear supernatant was transferred in 96 well plates and analyzed using LC-MS/MS.
Non-Compartmental-Analysis tool of Phoenix WinNonlin® (Version 6.3) was used to assess the pharmacokinetic parameters. […]

Cn1c(=O)c2c(ncn2CC(=O)Nc2ccc(-c3ccccc3O)nn2)n(C)c1=O [Compound 1, 2-(1,3-dimethyl-2,6-dioxo-1,2,3,6-tetrahydro-7H-purin-7-yl)-N-(6-(2-hydroxyphenyl)pyridazin-3-yl)acetamide]
IC50 [1]: 9 nM | Vss relative to normal volume of total body water (0.7 L/kg) ([2]; IV 1 mg/kg): ~2 fold | Plasma concentration, individual animals ([2]; IV 1 mg/kg, 0.08 hr, 1 mg/kg): 1220.50 ng/mL and 2541.20 ng/mL and 2233.92 ng/mL | Plasma concentration, individual animals ([2]; IV 1 mg/kg, 0.25 hr, 1 mg/kg): 1052.34 ng/mL and 1048.27 ng/mL | Plasma concentration, individual animals ([2]; IV 1 mg/kg, 0.5 hr, 1 mg/kg): 899.26 ng/mL and 894.59 ng/mL | Plasma concentration, individual animals ([2]; IV 1 mg/kg, 1 hr, 1 mg/kg): 151.52 ng/mL and 496.44 ng/mL and 268.90 ng/mL | Plasma concentration, individual animals ([2]; IV 1 mg/kg, 2 hr, 1 mg/kg): 60.16 ng/mL and 49.49 ng/mL | Plasma concentration, individual animals ([2]; IV 1 mg/kg, 4 hr, 1 mg/kg): 37.94 ng/mL and 27.10 ng/mL | Plasma concentration, individual animals ([2]; IV 1 mg/kg, 8 hr, 1 mg/kg): 6.59 ng/mL and 27.95 ng/mL and 8.94 ng/mL | Plasma concentration, individual animals ([2]; IV 1 mg/kg, 24 hr, below LLOQ considered zero, 1 mg/kg): 1.36 ng/mL and 1.10 ng/mL and 0.00 ng/mL | CL (expressed as CLf) ([2]; PO 5 mg/kg): 26.74 mL/min/kg | Vss (expressed as Vz) ([2]; PO 5 mg/kg): 7.55 L/kg | Time up to which plasma concentrations were quantifiable ([2]; PO 5 mg/kg, 2 animals out of 3, LLOQ 1.02 ng/mL): up to 24 hr | Plasma concentration, individual animals ([2]; PO 5 mg/kg, 0.25 hr, 5 mg/kg): 2450.80 ng/mL and 1426.54 ng/mL | Plasma concentration, individual animals ([2]; PO 5 mg/kg, 0.5 hr, 5 mg/kg): 2167.46 ng/mL and 1898.77 ng/mL and 1070.15 ng/mL | Plasma concentration, individual animals ([2]; PO 5 mg/kg, 1 hr, 5 mg/kg): 474.33 ng/mL and 433.52 ng/mL | Plasma concentration, individual animals ([2]; PO 5 mg/kg, 2 hr, 5 mg/kg): 331.78 ng/mL and 365.08 ng/mL | Plasma concentration, individual animals ([2]; PO 5 mg/kg, 4 hr, 5 mg/kg): 86.92 ng/mL and 503.47 ng/mL and 59.61 ng/mL | Plasma concentration, individual animals ([2]; PO 5 mg/kg, 6 hr, 5 mg/kg): 110.77 ng/mL and 81.54 ng/mL | Plasma concentration, individual animals ([2]; PO 5 mg/kg, 8 hr, 5 mg/kg): 41.28 ng/mL and 53.22 ng/mL | Plasma concentration, individual animals ([2]; PO 5 mg/kg, 24 hr, below LLOQ considered zero, 5 mg/kg): 0.00 ng/mL and 1.28 ng/mL and 2.31 ng/mL | concentration at 0.08 hr ([2]; male, BALB/c, mouse, plasma, iv, 1 mg/kg, IV 1 mg/kg, 0.08 hr): 2000 ng/mL | concentration at 0.25 hr ([2]; male, BALB/c, mouse, plasma, iv, 1 mg/kg, IV 1 mg/kg, 0.25 hr, read-out: Plasma concentration, Mean): 1020 ng/mL | concentration at 0.25 hr ([2]; male, BALB/c, mouse, plasma, iv, 1 mg/kg, IV 1 mg/kg, 0.25 hr, read-out: Plasma concentration, individual animals): 948 ng/mL | concentration at 0.5 hr ([2]; male, BALB/c, mouse, plasma, iv, 1 mg/kg, IV 1 mg/kg, 0.5 hr, read-out: Plasma concentration, Mean): 915 ng/mL | concentration at 0.5 hr ([2]; male, BALB/c, mouse, plasma, iv, 1 mg/kg, IV 1 mg/kg, 0.5 hr, read-out: Plasma concentration, individual animals): 952 ng/mL | concentration at 1 hr ([2]; male, BALB/c, mouse, plasma, iv, 1 mg/kg, IV 1 mg/kg, 1 hr, read-out: Plasma concentration, Mean): 306 ng/mL | concentration at 2 hr ([2]; male, BALB/c, mouse, plasma, iv, 1 mg/kg, IV 1 mg/kg, 2 hr, read-out: Plasma concentration, Mean): 50.7 ng/mL | concentration at 2 hr ([2]; male, BALB/c, mouse, plasma, iv, 1 mg/kg, IV 1 mg/kg, 2 hr, read-out: Plasma concentration, individual animals): 42.5 ng/mL
